# According to patent US20120010148A1, “COMBINATION THERAPIES USING NAP” (ALLON THERAPEUTICS INC., priority 2008, published 2012):
# Ends that are not written are not given here.
# Key:
# [1] = test system: Human SH-SY5Y neuroblastoma; test: Clozapine-induced cell death in SH-SY5Y cells, MTS assay; format: cell-based; settings: clozapine 20 μg/ml, 24 hours, FIG. 1
# Excerpt: Clozapine, a widely used anti psychotic drug may be associated with increased cell mortality. It was not known, however, whether NAP ([…], SEQ ID NO:2) treatment would inhibit clozapine associated neuronal death. To address this question and validate the efficiency of using a NAP-clozapine combination drug candidate, an experimental test system in cell culture was established (Heiser et al., Journal of Psychopharmacology 21(8):851-856 (2007)). Human SH-SY5Y neuroblastoma supplemented with 15% fetal calf serum (FCS) (Beit-Haemek, Israel), 1% penicillin-streptomycin, and 1% glutamine were incubated in a 5% CO2 atmosphere. Thirty-six thousand cells/well (in a 96 well plates) were plated 24 hours prior to the clozapine or NAP treatment. Clozapine (CLZ) was obtained from Sigma Chemicals (Sigma, Israel). Thirty-six thousand cells per well (in at least 6 replicate wells) were exposed to clozapine (CLZ, 20 μg/ml) or clozapine (CLZ, 20 μg/ml)+NAP or NAP alone (10^−15M-10^−10 M) for 24 hours at 37° C. Drug and control solutions were dissolved in ethanol. Measurement of metabolic activity and survival was determined by non-radioactive cell proliferation assay (MTS) (Promega, USA) and evaluated by an ELISA-reader at 490 nm wavelength.
# STOP+/− male mice = test: Mortality under chronic clozapine with or without intranasal NAP; format: in vivo, mouse; settings: clozapine 10 mg/kg IP daily, n=4
# Experimental: STOP+/− male mice (6 months old in average, n=4) received daily doses of 10 mg/kg intraperitoneal injection (IP) of clozapine (5 days a week), for the duration of the experiment (5 weeks). Clozapine (10 mg/kg) was solubilized under acidic conditions (pH ˜2.0 with HCl), and the solutions titrated back to ˜pH 7.4 with NaOH. In addition, these mice received daily intranasal vehicle solution that included the following ingredients (per milliliter): 7.5 mg of NaCl, 1.7 mg of citric acid monohydrate, 3 mg of disodium phosphate dihydrate, and 0.2 mg of benzalkonium chloride solution (50%) (Alcalay et al., Neurosci Lett 361, 128-131, 2004).
# A combination of clozapine with NAP experiment included an additional four mice (6 months old in average) that were injected with clozapine and administered with NAP intranasally in the vehicle delineated above (Alcalay et al., Neurosci Lett 361, 128-131, 2004). NAP or vehicle solution was administered daily to mice hand-held in a semi-supine position with nostrils facing the investigator. A pipette tip was used to administer 2.5 μl/nostril. The mouse was hand-held until the solution was totally absorbed (˜10 s).
# The experiment continued for 5 weeks.
# [2] = test system: neurons of the central nervous system; settings: in vitro assays and in vivo disease models; cited from earlier work
# MS = settings: daily subcutaneous injections, 20 mg/injection; cited from earlier work
# STOP−/− mice = settings: STOP−/− schizophrenia model; cited from earlier work
molecule,measurement,setting,value
"CN1CCN(C2=Nc3cc(Cl)ccc3Nc3ccccc32)CC1 [clozapine, Clozapine]",cell death,[1],about 60%
same,death,STOP+/− male mice; after 2.5 weeks of treatment,50%
same,death (cumulative),STOP+/− male mice; at ~4.5 weeks,75%
SALLRSIPA,survival of neurons in response to various insults,[2],keep neurons of the central nervous system alive
glatiramer acetate,"relapse rates, progression of disability, new MRI lesions",MS,"reduce relapse rates, progression of disability, appearance of new lesions"
C/C1=C/C[C@@H](/C(C)=C/c2csc(C)n2)OC(=O)C[C@H](O)C(C)(C)C(=O)[C@H](C)[C@@H](O)[C@@H](C)CCC1 [epothilone D],synaptic function and behavior,STOP−/− mice,ameliorates synaptic function and behavior
